From publication PMC11380953, “Multivalent, calcium-independent binding of surfactant protein A and D to sulfated glycosaminoglycans of the alveolar epithelial glycocalyx” (American Journal of Physiology - Lung Cellular and …, 2024)

Target: T1, hSP-A (Homo sapiens, UniProt Q8IWL1+Q8IWL2)
T1 construct: Human PAP patient, BAL isolated; from tissue; host or cells: bronchoalveolar lavage fluid of a patient with pulmonary alveolar proteinosis
Assay: Binding inhibition assay (hSP-A binding to coated mannan)
Settings: GAGs 15 µM to 30 nM, 5 mM CaCl2 (Fig. 1G)
Procedure: Following previously described assays ([41], [42]), 96-well plates (83.3924.005, Sarstaedt AG, Nümbrecht, Germany) were coated with 70 ng/well (total volume of 100 µL/well) of mannan (M7504, Sigma-Aldrich, St. Louis) dissolved in 0.1 M NaHCO3 buffer (pH 9.6) overnight at 4°C. After removal of the coating solution, wells were blocked with 100 µL of 5 mM Tris with 2% BSA (Serva, Heidelberg, Germany) at room temperature for 2 h. Plates were washed three times with 100 µL/well washing buffer (5 mM Tris, 0.9% NaCl, 0.05% Tween-20, and 5 mM CaCl2). Next, different concentrations of HA, HS, or CS ranging from 15 µM to 30 nM and hSP-A at 14 ng/well were added to washing buffer with 0.1% BSA. The plate was incubated for 2 h at room temperature to allow the protein to bind to either mannan or GAGs. After subsequent washing, as stated before, mannan-bound hSP-A was immunodetected by incubation with a specific anti-SP-A antibody (ab190087, Abcam, Cambridge, UK) at a 0.5 µg/mL concentration for 2 h at room temperature in washing buffer. After washing the excess of antibody, a secondary antibody conjugated with HRP (horseradish peroxidase) anti-goat (Abcam, ab 6885, Cambridge, UK) was added at 2 µg/mL for 1 h at room temperature. After washing, the color reaction was developed by adding 50 µL of TMB liquid substrate (T0440, Sigma-Aldrich, St. Louis). After 30 min, the reaction was stopped by adding 50 µL of Stop Reagent (S5814, Sigma-Aldrich, St. Louis) and the plate was read at 450 nm in a plate reader (FLUOstar Omega, BMG Labtech, Ortenberg, Germany).
The data of the binding inhibition assay were analyzed in GraphPad Prism 9.5.1 using the “normalize” function and fitting to the nonlinear regression dose-response inhibition. […] The fluorescence values from the collectin-based binding assay were normalized using the same “normalize” function in GraphPad, and the statistical test used was the “non-parametric Kruskal-Wallis” test. The statistical test used for the DMMB assay for GAG quantification was also the “non-parametric Kruskal-Wallis” test.

T1 sequence (Q8IWL2 21-248): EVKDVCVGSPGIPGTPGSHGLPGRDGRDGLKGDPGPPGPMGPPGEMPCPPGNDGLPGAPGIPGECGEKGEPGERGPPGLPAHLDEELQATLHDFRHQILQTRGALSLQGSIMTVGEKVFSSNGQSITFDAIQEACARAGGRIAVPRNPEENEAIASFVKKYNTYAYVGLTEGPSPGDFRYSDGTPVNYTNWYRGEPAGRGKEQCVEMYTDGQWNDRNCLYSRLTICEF
T1 sequence (Q8IWL1 21-248): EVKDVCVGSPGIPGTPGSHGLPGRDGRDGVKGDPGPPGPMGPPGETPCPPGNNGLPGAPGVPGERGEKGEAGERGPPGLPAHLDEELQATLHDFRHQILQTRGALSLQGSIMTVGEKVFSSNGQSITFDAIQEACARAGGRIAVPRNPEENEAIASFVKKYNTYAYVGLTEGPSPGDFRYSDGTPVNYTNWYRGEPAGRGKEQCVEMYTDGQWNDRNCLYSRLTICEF

hSP-A binding inhibition to mannan, in the µM range:
chondroitin sulfate sodium salt [CS]
heparan sulfate sodium [HS]
hyaluronic acid sodium salt [HA]
